Source: the NIST ThermoML archive (doi:10.1021/je4001697)

Conditions: Liquid, Pulse-echo method

Cc1ccccc1 [toluene]
Conditions | speed of sound [m/s]
340 K, 103.2 kPa | 1128.5
340 K, 1103.7 kPa | 1134.9
340 K, 1104.1 kPa | 1134.9
340 K, 2104.3 kPa | 1141.2
340 K, 2104.9 kPa | 1141.2
340 K, 3105 kPa | 1147.5
340 K, 3105.8 kPa | 1147.5
340 K, 4105.8 kPa | 1153.6
340 K, 4106.6 kPa | 1153.6
340 K, 5107.2 kPa | 1159.7
340 K, 6107.7 kPa | 1165.7
340 K, 7108.4 kPa | 1171.7
340 K, 8109.1 kPa | 1177.5
340 K, 9109.7 kPa | 1183.4
340 K, 10110 kPa | 1189.1
340 K, 12612 kPa | 1203.2
340 K, 15114 kPa | 1217
340 K, 17615 kPa | 1230.4
340 K, 20117 kPa | 1243.5
340 K, 25120 kPa | 1268.8
340 K, 30124 kPa | 1293.1
340 K, 35128 kPa | 1316.4
340 K, 40131 kPa | 1338.9
340 K, 45135 kPa | 1360.6
340 K, 50139 kPa | 1381.6
340 K, 60146 kPa | 1421.7
340 K, 70153 kPa | 1459.5
340 K, 80160 kPa | 1495.4
340 K, 90166 kPa | 1529.6
340 K, 100174 kPa | 1562.3
359.99 K, 10111 kPa | 1114.3
359.99 K, 12613 kPa | 1129.7
359.99 K, 15114 kPa | 1144.6
359.99 K, 17616 kPa | 1159.1
359.99 K, 20117 kPa | 1173.3
359.99 K, 25121 kPa | 1200.5
359.99 K, 30124 kPa | 1226.4
359.99 K, 35128 kPa | 1251.3
359.99 K, 40131 kPa | 1275.1
359.99 K, 45134 kPa | 1298.1
359.99 K, 50138 kPa | 1320.2
359.99 K, 60145 kPa | 1362.3
359.99 K, 70152 kPa | 1402
359.99 K, 80159 kPa | 1439.4
359.99 K, 90166 kPa | 1475
359.99 K, 100173 kPa | 1508.9
360 K, 103.4 kPa | 1047.6
360 K, 1104.1 kPa | 1054.7
360 K, 2104.8 kPa | 1061.7
360 K, 3105.4 kPa | 1068.6
360 K, 4106.4 kPa | 1075.4
360 K, 5107 kPa | 1082.1
360 K, 6107.4 kPa | 1088.7
360 K, 7108 kPa | 1095.2
360 K, 8108.7 kPa | 1101.7
360 K, 9109.5 kPa | 1108
360 K, 10110 kPa | 1114.3
360 K, 12612 kPa | 1129.7
380 K, 101.06 kPa | 968.43
380 K, 1102.5 kPa | 976.37
380 K, 2103.4 kPa | 984.15
380 K, 3104.1 kPa | 991.81
380 K, 4105 kPa | 999.34
380 K, 5105.7 kPa | 1006.7
380 K, 6106.1 kPa | 1014
380 K, 7106.8 kPa | 1021.2
380 K, 8107.6 kPa | 1028.3
380 K, 9108.3 kPa | 1035.2
380 K, 10109 kPa | 1042.1
380 K, 12611 kPa | 1058.8
380 K, 15113 kPa | 1075
380 K, 17615 kPa | 1090.7
380 K, 20117 kPa | 1106
380 K, 25120 kPa | 1135.2
380 K, 30124 kPa | 1162.9
380 K, 35127 kPa | 1189.3
380 K, 40131 kPa | 1214.5
380 K, 45134 kPa | 1238.8
380 K, 50138 kPa | 1262.1
380 K, 60144 kPa | 1306.3
380 K, 70152 kPa | 1347.7
380 K, 80159 kPa | 1386.7
380 K, 90166 kPa | 1423.6
380 K, 100173 kPa | 1458.8
400 K, 603.01 kPa | 894.98
400 K, 608.94 kPa | 895.04
400 K, 1104.2 kPa | 899.42
400 K, 2104.6 kPa | 908.15
400 K, 3105.3 kPa | 916.7
400 K, 4105.1 kPa | 925.08
400 K, 4106 kPa | 925.07
400 K, 5106.7 kPa | 933.29
400 K, 6107.4 kPa | 941.35
400 K, 7108 kPa | 949.26
400 K, 8108.7 kPa | 957.04
400 K, 9109.3 kPa | 964.69
400 K, 10110 kPa | 972.21
400 K, 12612 kPa | 990.48
400 K, 15113 kPa | 1008.1
400 K, 17615 kPa | 1025
400 K, 20117 kPa | 1041.5
400 K, 25120 kPa | 1072.8
400 K, 30123 kPa | 1102.4
400 K, 35127 kPa | 1130.4
400 K, 40130 kPa | 1157.1
400 K, 45134 kPa | 1182.7
400 K, 50138 kPa | 1207.2
400 K, 60144 kPa | 1253.4
400 K, 70152 kPa | 1296.5
400 K, 80158 kPa | 1337
400 K, 90166 kPa | 1375.3
400 K, 100173 kPa | 1411.7
420 K, 1102.5 kPa | 823.4
420 K, 2103.2 kPa | 833.27
420 K, 3103.9 kPa | 842.89
420 K, 4104.6 kPa | 852.28
420 K, 5105.2 kPa | 861.45
420 K, 6105.9 kPa | 870.42
420 K, 7106.6 kPa | 879.2
420 K, 8107.3 kPa | 887.79
420 K, 9108 kPa | 896.21
420 K, 10109 kPa | 904.48
420 K, 12610 kPa | 924.47
420 K, 15112 kPa | 943.61
420 K, 17614 kPa | 961.99
420 K, 20116 kPa | 979.68
420 K, 25119 kPa | 1013.3
420 K, 30123 kPa | 1044.8
420 K, 35126 kPa | 1074.5
420 K, 40130 kPa | 1102.7
420 K, 45133 kPa | 1129.5
420 K, 50137 kPa | 1155.2
420 K, 60144 kPa | 1203.5
420 K, 70151 kPa | 1248.4
420 K, 80158 kPa | 1290.4
420 K, 90165 kPa | 1329.9
420 K, 100172 kPa | 1367.4
